In article PMC6364417, “Kinase inhibitor library screening identifies synergistic drug combinations effective in sensitive and resistant melanoma cells” (Journal of Experimental & Clinical Cancer Research : CR, 2019):

Legend:
Assay in all cases: Kinase inhibitor library screening, PrestoBlue cell viability, 1 or 10 μM, 72 h
501Mel cells (parental) = conditions: 501Mel Parental, 72 h, in %
In short: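 Each compound was applied to parental melanoma cells and to derivatives made resistant to Vemurafenib or Dabrafenib. After treatment, viability was read with PrestoBlue on a plate reader and expressed as % of untreated cells, with each line run at least in duplicate.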

[1] = tested on: 501Mel-GP cells (Dabrafenib-resistant); conditions: 501Mel GP, 72 h, in %
[2] = tested on: 501Mel-XP cells (Vemurafenib-resistant); conditions: 501Mel XP, 72 h, in %
A375 cells (parental) = conditions: A375 Parental, 72 h
[3] = tested on: A375-GP cells (Dabrafenib-resistant); conditions: A375 GP, 72 h
[4] = tested on: A375-XP cells (Vemurafenib-resistant); conditions: A375 XP, 72 h
IGR37 cells (parental) = conditions: IGR37 Parental, 72 h, in %
[5] = tested on: IGR37-GP cells (Dabrafenib-resistant); conditions: IGR37 GP, 72 h; for Cell viability in kinase inhibitor library screening, IGR37 GP, 1μΜ: in %
[6] = tested on: IGR37-XP cells (Vemurafenib-resistant); conditions: IGR37 XP, 72 h; for Cell viability in kinase inhibitor library screening, IGR37 XP, 1μΜ: in %

Row | Compound | Cell viability in kinase inhibitor library screening, 501Mel Parental, 1μΜ (501Mel cells (parental)) | Cell viability in kinase inhibitor library screening, 501Mel Parental, 10μΜ (501Mel cells (parental)) | Cell viability in kinase inhibitor library screening, 501Mel GP, 1μΜ [1] | Cell viability in kinase inhibitor library screening, 501Mel GP, 10μΜ [1] | Cell viability in kinase inhibitor library screening, 501Mel XP, 1μΜ [2] | Cell viability in kinase inhibitor library screening, 501Mel XP, 10μΜ [2] | Cell viability in kinase inhibitor library screening, A375 Parental, 10μΜ (A375 cells (parental)) | Cell viability in kinase inhibitor library screening, A375 Parental, 1μΜ (A375 cells (parental)) | Cell viability in kinase inhibitor library screening, A375 GP, 1μΜ [3] | Cell viability in kinase inhibitor library screening, A375 GP, 10μΜ [3] | Cell viability in kinase inhibitor library screening, A375 XP, 1μΜ [4] | Cell viability in kinase inhibitor library screening, A375 XP, 10μΜ [4] | Cell viability in kinase inhibitor library screening, IGR37 Parental, 1μΜ (IGR37 cells (parental)) | Cell viability in kinase inhibitor library screening, IGR37 Parental, 10μΜ (IGR37 cells (parental)) | Cell viability in kinase inhibitor library screening, IGR37 GP, 10μΜ [5] [%] | Cell viability in kinase inhibitor library screening, IGR37 GP, 1μΜ [5] | Cell viability in kinase inhibitor library screening, IGR37 XP, 10μΜ [6] [%] | Cell viability in kinase inhibitor library screening, IGR37 XP, 1μΜ [6]
1 | CCn1nnc2c(N3CCOCC3)nc(-c3ccc(NC(=O)Nc4ccc(C(=O)N5CCN(C)CC5)cc4)cc3)nc21 [PKI-402] | 15.4 | 0.476 | 21.4 | 0.548 | 15.3 | -0.1 | 12.7 | 21.3 | 23.7 | 9.7 | 20.0 | 8.5 | 35.8 | 2.7 | 3.4 | 66.1 | 1.9 | 25.5
2 | CCCS(=O)(=O)Nc1ccc(F)c(C(=O)c2c[nH]c3ncc(Cl)cc23)c1F [PLX-4720] | 63.2 | 55.8 | 104.7 | 77.9 | 96.2 | 64.4 | 14.6 | 32.1 | 83.9 | 78.1 | 102.9 | 79.1 | 44.1 | 31.4 | 79 | 97.0 | 52.5 | 99.4
3 | COc1ccc(COc2cc3oc(=O)c4cc(C(C)O)ccc4c3cc2OC)cc1 (centres unmarked) [Palomid 529] | 87.4 | 80.1 | 90.2 | 80.5 | 95.5 | 30.6 | 83.6 |  | 94.7 | 88.6 | 100.3 | 90.5 | 102.9 | 103.1 | 75.1 | 87.7 | 46.5 | 98.2
